In publication PMC10058748, “Triterpenoids of Three Apple Cultivars—Biosynthesis, Antioxidative and Anti-Inflammatory Properties, and Fate during Processing” (Molecules, 2023):
In brackets after ≈: the same amount, converted by molar mass.

How the values were obtained:
[1] = biological target: T1, cyclooxygenase 1 (COX-1) (Homo sapiens, UniProt P23219); assay: COX-1 inhibition (commercial kit, Cayman Chemicals item 701070); format: biochemical; conditions: expressed per dry mass; 1% DMSO
T1 construct: purchased Cayman Chemicals 701070

[2] = biological target: T2, cyclooxygenase 2 (COX-2) (Homo sapiens, UniProt P35354); assay: COX-2 inhibition (commercial kit, Cayman Chemicals item 701080); format: biochemical; conditions: expressed per dry mass; 1% DMSO
T2 sequence (P35354 18-604): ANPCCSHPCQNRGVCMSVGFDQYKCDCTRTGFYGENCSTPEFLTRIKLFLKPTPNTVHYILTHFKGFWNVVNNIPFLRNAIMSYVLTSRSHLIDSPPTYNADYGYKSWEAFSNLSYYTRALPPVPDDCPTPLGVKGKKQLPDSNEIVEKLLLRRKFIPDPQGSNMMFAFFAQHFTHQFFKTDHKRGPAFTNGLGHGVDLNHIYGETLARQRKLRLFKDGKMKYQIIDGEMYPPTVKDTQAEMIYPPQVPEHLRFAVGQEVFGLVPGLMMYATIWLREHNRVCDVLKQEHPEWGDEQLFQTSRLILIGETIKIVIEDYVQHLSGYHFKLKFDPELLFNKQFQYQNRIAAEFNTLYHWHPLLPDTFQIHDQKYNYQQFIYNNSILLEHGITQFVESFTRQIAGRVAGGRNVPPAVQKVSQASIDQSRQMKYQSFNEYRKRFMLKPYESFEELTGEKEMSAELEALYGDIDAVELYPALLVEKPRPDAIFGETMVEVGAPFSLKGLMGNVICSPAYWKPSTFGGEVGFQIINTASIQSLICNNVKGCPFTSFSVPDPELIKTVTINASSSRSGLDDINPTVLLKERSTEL

[3] = biological target: T3, 5-lipoxygenase (5-LOX) (Homo sapiens, UniProt P09917); assay: 5-LOX inhibition (commercial kit, abcam ab284521); format: biochemical; conditions: expressed per dry mass; 1% DMSO
T3 construct: purchased abcam ab284521
T3 sequence (P09917 1-674): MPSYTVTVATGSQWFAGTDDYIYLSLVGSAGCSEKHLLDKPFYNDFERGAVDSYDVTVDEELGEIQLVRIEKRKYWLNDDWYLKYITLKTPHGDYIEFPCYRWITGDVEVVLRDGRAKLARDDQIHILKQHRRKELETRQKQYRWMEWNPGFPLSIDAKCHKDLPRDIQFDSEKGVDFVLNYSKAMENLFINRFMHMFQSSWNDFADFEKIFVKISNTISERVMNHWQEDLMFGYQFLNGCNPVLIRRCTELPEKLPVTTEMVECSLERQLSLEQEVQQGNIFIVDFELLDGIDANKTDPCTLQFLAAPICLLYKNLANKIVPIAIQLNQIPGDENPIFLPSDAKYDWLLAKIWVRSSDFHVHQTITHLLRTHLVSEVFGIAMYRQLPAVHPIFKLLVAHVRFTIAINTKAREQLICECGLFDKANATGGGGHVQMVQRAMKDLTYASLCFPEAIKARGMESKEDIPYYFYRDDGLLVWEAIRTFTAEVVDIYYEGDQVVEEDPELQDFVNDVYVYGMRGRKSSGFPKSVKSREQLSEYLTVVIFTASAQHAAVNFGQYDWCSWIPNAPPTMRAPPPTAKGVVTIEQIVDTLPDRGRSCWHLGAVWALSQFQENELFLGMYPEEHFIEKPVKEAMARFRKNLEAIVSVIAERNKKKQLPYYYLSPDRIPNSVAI
Procedure: The selected peel extracts as well as the standards of triterpenic compounds were analyzed for their antioxidative and anti-inflammatory properties. Due to their hydrophobic character, the samples were dissolved in dimethyl sulfoxide (DMSO). The content of DMSO in the reaction media in all the tests described below was 1% for all the tested samples as well as the controls.
The anti-inflammatory activity was evaluated using commercial kits for three enzymes of biological activity: cyclooxygenases 1 and 2 (COX-1 and COX-2) and 5-lipoxygenase (5-LOX), according to the instructions of the producers. Inhibition of the cyclooxygenases was measured using kits from Cayman Chemicals (Ann Arbor, MI, USA; items 701070 and 701080, respectively), while 5-LOX inhibition was measured using a kit from abcam (Cambridge, UK; item no. ab284521).

[4] = ABTS radical cation scavenging activity; conditions: expressed per dry mass; 1% DMSO; 6 min incubation, 734 nm
Procedure: The scavenging activity against ABTS^•+ was measured with a protocol described by Re et al. [63]. […] Then, 25 µL samples were mixed with 2.5 mL of ABTS^•+ solution and incubated for 6 min. […] Trolox was chosen as a reference antioxidant.

[5] = DPPH radical scavenging activity; conditions: expressed per dry mass; 1% DMSO; 30 min at room temperature, 517 nm
Procedure: A method described by Yen and Chen was used to determine the activity against DPPH^• [64]. Briefly, 0.1 mL samples were mixed with 2 mL of DPPH^• solution (1 mM) and incubated at room temperature for 30 min. […] Trolox was chosen as a reference antioxidant.

[6] = heating; cited from earlier work

T1 sequence (P23219 24-599): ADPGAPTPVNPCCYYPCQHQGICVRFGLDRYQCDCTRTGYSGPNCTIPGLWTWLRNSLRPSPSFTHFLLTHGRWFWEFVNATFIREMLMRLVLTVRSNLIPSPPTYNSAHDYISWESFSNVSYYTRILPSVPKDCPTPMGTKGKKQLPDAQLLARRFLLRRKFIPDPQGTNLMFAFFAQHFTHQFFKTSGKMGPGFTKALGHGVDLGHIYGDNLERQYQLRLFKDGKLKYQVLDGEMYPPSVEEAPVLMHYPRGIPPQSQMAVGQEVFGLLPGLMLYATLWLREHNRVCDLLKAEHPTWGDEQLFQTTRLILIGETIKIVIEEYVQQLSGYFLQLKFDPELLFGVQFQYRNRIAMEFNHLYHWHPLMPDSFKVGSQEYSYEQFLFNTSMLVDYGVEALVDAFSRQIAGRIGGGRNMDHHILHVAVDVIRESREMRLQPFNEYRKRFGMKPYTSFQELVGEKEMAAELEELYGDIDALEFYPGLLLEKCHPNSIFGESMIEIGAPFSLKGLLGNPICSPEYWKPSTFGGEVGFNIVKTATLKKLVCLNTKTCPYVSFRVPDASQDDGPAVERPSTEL

IC50 [1] [µM]	IC50 [2] [µM]	IC50 [3] [µM]	IC50 ABTS^•+ scavenging [4] [mg/L]	IC50 DPPH^• scavenging [5] [mg/L]	Structure (SMILES)	temperature above which degradative processes occur [6]
114	67.9	1570			C[C@H]1[C@H](C)CC[C@]2(C(=O)O)CC[C@]3(C)C(=CC[C@@H]4[C@@]5(C)CC[C@H](O)C(C)(C)[C@@H]5CC[C@]43C)[C@H]12 [Ursolic Acid, Ursolic acid]	
	921	4200			CC[C@H](CC[C@@H](C)[C@H]1CC[C@H]2[C@@H]3CC=C4C[C@@H](O)CC[C@]4(C)[C@H]3CC[C@]12C)C(C)C [β-Sitosterol, β-sitosterol]	

Continued, compound first:

Structure (SMILES)	IC50 [1] [µM]	IC50 [2] [µM]	IC50 [3] [µM]	IC50 ABTS^•+ scavenging [4] [mg/L]	IC50 DPPH^• scavenging [5] [mg/L]	temperature above which degradative processes occur [6]
O=C(/C=C/c1ccc(O)c(O)c1)O[C@@H]1C[C@](O)(C(=O)O)C[C@@H](O)[C@H]1O [Chlorogenic Acid, chlorogenic acid]	2960	1730	> 14100			
CC1(C)CC[C@]2(C(=O)O)CC[C@]3(C)C(=CC[C@@H]4[C@@]5(C)CC[C@H](O)C(C)(C)[C@@H]5CC[C@]43C)[C@@H]2C1 [Oleanolic Acid, Oleanolic acid]			1400	155 ± 7 (≈ 339 µM)	96 ± 5 (≈ 210 µM)	above 200 °C
O=C(CCc1ccc(O)cc1)c1c(O)cc(O)cc1O[C@@H]1O[C@H](CO)[C@@H](O)[C@H](O)[C@H]1O [Phloridzin, phloridzin]	2200	1480	> 11500	34 ± 4 (≈ 77.9 µM)	23 ± 3 (≈ 52.7 µM)	
